From patent publication US10980828B2, “Method of using cyclodextrin” (L&F Research LLC, priority 2012, dated 2021)

How the values were obtained:
human podocytes [1] = experiment: Western blotting and luminex (insulin stimulated AKT phosphorylation, MyD88) in podocytes exposed to patient sera; format: cell-based; conditions: DKD+ treated podocytes, 5 mM CD pretreatment 1 hour
Method: Human podocyte culture. Human podocytes were cultured and differentiated as previously described and serum starved in 0.2% FBS prior to experiments. When patient sera were utilized, starved cells were exposed to 4% patient sera for 24 hours. For insulin treatment experiments, 100 nmol insulin was added to the culture medium for 15 minutes after exposure to patient sera. […] Western blotting and luminex. Cell lysate collection and Western blotting was performed as previously described. The following primary antibodies were used: rabbit-polyclonal-anti-MyD88 (Cell Signaling), rabbit-polyclonal-anti-phosphorylated ([…]) or anti-total-AKT (Cell Signaling), mouse-monoclonal-anti-rhoA (Santa Cruz), or mouse-monoclonal-anti-Gapdh (6C5, Calbiochem) antibody. Secondary Anti-mouse-IgG-HRP or and Anti-rabbit-IgG-HRP Conjugate (Promega) were used. Image acquisition was performed using the chemiluminescent imager SRX-101A (Konica Minolta medical imaging, USA) and band densitometry was analyzed using ImageJ software (NIH). Alternatively, phosphorylated/total AKT was quantified using luminex technology as previously reported.

human islets = experiment: Human islet perifusion: glucose stimulated insulin release; format: cell-based; conditions: human islets from four preparations, pretreated with 0.5 mM CD for one hour, vs untreated
Method: BTBR ob/ob mice treatment and analysis. BTBR ob/ob mice were purchased from Jackson Laboratories. Mice were injected subcutaneously with 4,000 mg/kg CD or saline as reported previously, three times per week for 5 months. Urine was collected, and body weight and glycemia (OneTouch) were determined weekly. Six mice per group were analyzed. All animal procedures were approved by the Institutional Animal Care and Use Committee (IACUC). After isotonic saline perfusion, the right kidney was removed for cholesterol content determination and mRNA extraction. One left kidney pole was embedded in OCT, a second pole fixed in 4% PFA and paraffin-embedded for histological analysis. Blood samples were analyzed for CBC, lipid panel, AST, ALT, Alkaline Phosphatase, GGT, and BUN in the Comparative Laboratory Core Facility, University of Miami. Serum creatinine was determined by tandem mass spectrometry at the UAB-UCSD O'Brien Core Center, University of Alabama at Birmingham, using the methods previously described. The urine albumin content was measured by ELISA (Bethyl Laboratories). Urinary creatinine was assessed by an assay based on the Jaffe method (Stanbio). Values are expressed as μg albumin/mg creatinine. Fasting plasma insulin was determined by ELISA (Mercodia, SW). […]

ABCA1 [2] = experiment: ABCA1 mRNA expression in kidney cortex of BTBR ob/ob mice; format: in vivo; conditions: BTBR ob/ob mice, 4,000 mg/kg s.c. three times per week, 5 months
Method: Quantitative Real Time PCR (QRT-PCR). Podocyte RNA was extracted using the RNAeasy Mini Kit (Qiagen). Reverse transcription was performed using the high-capacity cDNA reverse transcriptase kit (Applied Biosystems) according to the manufacturer's protocols. QRT-PCR was performed in the StepOnePlus real-time PCR system (Applied Biosystems) using the PerfeCTa® SYBR® Green FastMix (Quanta Biosciences). Relative gene expression was determined as 2^-ΔCt, with ΔCt being the difference between the cycle threshold (Ct) value of the target gene and Gapdh. For semi-quantitative expression analysis, PCR was performed and analyzed by gel electrophoresis. Amplification product intensities were determined using ImageJ software (NIH), values were normalized and expressed as fold changes in gene expression over GAPDH. The following primers were used: hABCA1-F, […]; hABCA1-R, […]; hLDL-R-F, […]; hLDL-R-R, […]; hHMG-CoA-R-F, […]; hHMG-CoA-R-R, […]; hGAPDH-F, […]; hGAPDH-R, Hs_ABCA1-SG QuantiTect-Primer-Assay (Qiagen); mAbca1-F, […]; mAbca1-R, […].
BTBR ob/ob mice treatment and analysis. […] Urine was collected, and body weight and glycemia (OneTouch) were determined weekly. Six mice per group were analyzed. […] Blood samples were analyzed for CBC, lipid panel, AST, ALT, Alkaline Phosphatase, GGT, and BUN in the Comparative Laboratory Core Facility, University of Miami. […]

BTBR mice = experiment: Safety of chronic subcutaneous CD in BTBR mice (blood analysis at sacrifice); format: in vivo; conditions: at sacrifice, 4,000 mg/kg s.c. three times per week for 5 months
Method: (§1) BTBR ob/ob mice treatment and analysis. BTBR ob/ob mice were purchased from Jackson Laboratories. Mice were injected subcutaneously with 4,000 mg/kg CD or saline as reported previously, three times per week for 5 months. Urine was collected, and body weight and glycemia (OneTouch) were determined weekly. Six mice per group were analyzed. All animal procedures were approved by the Institutional Animal Care and Use Committee (IACUC). After isotonic saline perfusion, the right kidney was removed for cholesterol content determination and mRNA extraction. One left kidney pole was embedded in OCT, a second pole fixed in 4% PFA and paraffin-embedded for histological analysis. Blood samples were analyzed for CBC, lipid panel, AST, ALT, Alkaline Phosphatase, GGT, and BUN in the Comparative Laboratory Core Facility, University of Miami. Serum creatinine was determined by tandem mass spectrometry at the UAB-UCSD O'Brien Core Center, University of Alabama at Birmingham, using the methods previously described. The urine albumin content was measured by ELISA (Bethyl Laboratories). Urinary creatinine was assessed by an assay based on the Jaffe method (Stanbio). Values are expressed as μg albumin/mg creatinine. Fasting plasma insulin was determined by ELISA (Mercodia, SW). Intraperitoneal glucose tolerance tests (IPGTT) were performed 4 months after treatment; after 5-hr fasting, blood glucose was recorded at baseline and up to 180 minutes after a glucose bolus (1.5 g/kg). For insulin sensitivity, glycemia was monitored at baseline and up to 150 minutes after intraperitoneal injection of 4 mU/g of short acting insulin. Human islets from four different isolations were pretreated with 0.5 mM CD for one hour and perfused as described before to determine insulin release in response to glucose and KCl.
FIG. 3 is a table illustrating the safety of CD in 4-week old BTBR mice treated following subcutaneous administration of three weekly injections of hydroxypropyl-β-cyclodextrin (CD, 4,000 mg/kg body weight) for five months.

human podocytes [3] = experiment: Apoptosis analysis (Caspase-3 colorimetric assay) in podocytes exposed to patient sera; format: cell-based; conditions: DKD+ treated podocytes, 5 mM CD pretreatment 1 hour
Method: Human podocyte culture. Human podocytes were cultured and differentiated as previously described and serum starved in 0.2% FBS prior to experiments. When patient sera were utilized, starved cells were exposed to 4% patient sera for 24 hours. For insulin treatment experiments, 100 nmol insulin was added to the culture medium for 15 minutes after exposure to patient sera. […] Apoptosis analysis. Apoptosis was assessed using the Caspase-3/CPP32 Colorimetric Assay kit (Biovision) according to the manufacturer's description. Caspase 3 activity was normalized to cell number and expressed as fold change to controls.

ABCA1 [4] = experiment: ABCA1 immunofluorescence staining in pancreata of BTBR mice; format: in vivo
Description: IPGTT performed one week prior to sacrifice were improved in CD treated homozygous mice when compared to homozygous controls. As improvement was observed despite a similar insulin sensitivity test, we analyzed the effect of low dose CD on the function of four different preparations of human islet cells. […] To determine whether the beneficial effect of CD on islet cell function was associated with the modulation of ABCA1 expression in pancreatic islets, we performed immunofluorescence staining using a rabbit polyclonal ABCA1 antibody (gift from Dr. A. Mendez) and determined ABCA1 expression as mean fluorescence intensity per pancreata analyzed. […] As hemolytic anemia and liver toxicity have been described while using other cyclodextrin derivatives in rodents and humans, and because we administered high dose CD for a period of 5 months, we studied hemoglobin, aspartate aminotransferase (AST), alanine transaminase (ALT) and gamma-glutamyltransferase (GGT) at sacrifice.

human podocytes [5] = experiment: Human podocytes exposed to DKD+ patient sera: immunofluorescence staining (filipin, phospho-caveolin, F-actin, cell blebbing); format: cell-based
Method: We used a previously established cell-based assay in which differentiated human podocytes are exposed to 4% patient sera for 24 hours to identify new pathways and targets in DKD. […] Excessive cholesterol deposition has indeed been described in glomeruli of rodent models of T1D and T2D and may contribute to DKD development and progression.
Human podocyte culture. Human podocytes were cultured and differentiated as previously described and serum starved in 0.2% FBS prior to experiments. When patient sera were utilized, starved cells were exposed to 4% patient sera for 24 hours. For insulin treatment experiments, 100 nmol insulin was added to the culture medium for 15 minutes after exposure to patient sera.
Immunofluorescence staining. […] Fluorescence detection was performed using Alexa Fluor secondary antibodies (Invitrogen). For cholesterol determination, filipin (Sigma) staining was performed as described. F-actin was visualized by Rhodamine Phalloidin (Invitrogen). Two hundred consecutive cells per condition were studied. Slides were prepared with DAPI enriched mounting media (Vectashield) and analyzed by confocal microscopy.

[6] = intravenous infusions; cited from earlier work
human podocytes [7] = experiment: Determination of cholesterol content in podocytes exposed to patient sera; format: cell-based; conditions: DKD+ treated podocytes, 5 mM CD pretreatment 1 hour
Method: Human podocyte culture. Human podocytes were cultured and differentiated as previously described and serum starved in 0.2% FBS prior to experiments. When patient sera were utilized, starved cells were exposed to 4% patient sera for 24 hours. For insulin treatment experiments, 100 nmol insulin was added to the culture medium for 15 minutes after exposure to patient sera. […] Determination of cholesterol content. Esterified cholesterol was determined as difference between total and free cholesterol using an enzymatic assay and normalized to cell protein content. The cellular content of lipid droplets was determined using Oil red O (ORO). Cells were fixed and permeabilized as described above, washed in PBS and in 60% isopropanol, followed by incubation in ORO (0.5% ORO in isopropanol, 1:3 diluted) for 15 min at room temperature and counterstaining with hematoxylin for 1 min. The fraction of ORO positive cells over two hundred consecutive cells was calculated by bright field microscopy.

BTBR ob/ob mice [8] = experiment: BTBR ob/ob mice treatment: body weight, glycemia, insulin, IPGTT, insulin sensitivity; format: in vivo
Method: as §1

BTBR ob/ob mice [9] = experiment: BTBR ob/ob mice treatment: diabetic kidney disease readouts; format: in vivo
Method: as §1
Histology, assessment of mesangial expansion and glomerular surface area. Periodic acid-Shiff's (PAS) staining of 4 μm thick tissue sections was performed. Twenty glomeruli per section were analyzed for mesangial expansion by semiquantitative analysis (scale 0-4) performed by two blinded independent investigators. The glomerular surface was delineated in each encountered glomerulus and the mean surface area calculated as described.

[10] = podocytes pretreated 1 hour with 5 mM CD, exposed to 4% DKD+ sera 24 hours
[11] = BTBR ob/ob mice, 4,000 mg/kg s.c. three times per week, after four months of treatment
[12] = sera collected at sacrifice, BTBR ob/ob mice, 4,000 mg/kg s.c. three times per week
[13] = serum at sacrifice, 4,000 mg/kg s.c. three times per week, 5 months

CC(O)COC[C@H]1O[C@@H]2O[C@H]3[C@H](O)[C@@H](O)[C@@H](O[C@H]4[C@H](O)[C@@H](O)[C@@H](O[C@H]5[C@H](O)[C@@H](O)[C@@H](O[C@H]6[C@H](O)[C@@H](O)[C@@H](O[C@H]7[C@H](O)[C@@H](O)[C@@H](O[C@H]8[C@H](O)[C@@H](O)[C@@H](O[C@H]1[C@H](O)[C@H]2O)O[C@@H]8COCC(C)O)O[C@@H]7COCC(C)O)O[C@@H]6COCC(C)O)O[C@@H]5COCC(C)O)O[C@@H]4COCC(C)O)O[C@@H]3COCC(C)O (stereo partly drawn) [CD, hydroxypropyl-β-cyclodextrin]
DKD+ induced MyD88 expression (human podocytes [1]): prevented | DKD+ induced insulin resistance (insulin stimulated AKT phosphorylation) (human podocytes [1]; 100 nmol insulin 15 minutes): prevented | glucose stimulated insulin release (human islets): significant improvement in glucose stimulated insulin release | ABCA1 mRNA expression in the kidney cortex (ABCA1 [2]): did not affect | alanine transaminase (ALT) (BTBR mice): No abnormalities | aspartate aminotransferase (AST) (BTBR mice): No abnormalities | gamma-glutamyltransferase (GGT) (BTBR mice): No abnormalities | hemoglobin (BTBR mice): No abnormalities | DKD+ induced apoptosis (cleaved Caspase 3) (human podocytes [3]): prevented DKD+ induced apoptosis | ABCA1 expression in pancreata (mean fluorescence intensity) (ABCA1 [4]; heterozygous BTBR ob/+ mice, p<0.01): significantly increased ABCA1 expression | ABCA1 expression in pancreata (mean fluorescence intensity) (ABCA1 [4]; homozygous BTBR ob/ob mice, p<0.001): significantly increased ABCA1 expression | cell blebbing (human podocytes [5]; human podocytes exposed to sera of patients with diabetic kidney disease, CD): prevents | localization of phosphorylated caveolin to focal adhesion sites (human podocytes [5]; [10]): preserved the localization of phosphorylated caveolin to focal adhesion sites | number of filipin-positive cells (human podocytes [5]; [10]): reduced the number of filipin-positive cells | podocyte injury observed in vitro after exposure to patient sera (human podocytes [5]; pretreated 1 hour with 5 mM CD or 1 μM simvastatin): prevented podocyte injury | crossing from the bloodstream into the brain [6]: does not cross from the bloodstream into the brain | accumulation of esterified cholesterol (human podocytes [7]): prevented the accumulation of total and esterified cholesterol | accumulation of total cholesterol (human podocytes [7]): prevented the accumulation of total and esterified cholesterol | body weight (BTBR ob/ob mice [8]; [11]): reduction of body weight | random glycemia (BTBR ob/ob mice [8]; [11]): improvement of random glycemia | sensitivity to a single dose of short acting insulin (BTBR ob/ob mice [8]; BTBR ob/ob mice, insulin 4 mU/g intraperitoneal): did not affect the sensitivity | IPGTT (glucose tolerance) (BTBR ob/ob mice [8]; CD treated homozygous mice vs homozygous controls, one week prior to sacrifice, glucose bolus 1.5 g/kg): improved | fasting plasma glucose (BTBR ob/ob mice [8]; [12]): significant improvement | fasting plasma insulin (BTBR ob/ob mice [8]; [12]): significant improvement | total cholesterol in the kidney cortex (BTBR ob/ob mice [9]; BTBR ob/ob mice, 4,000 mg/kg s.c. three times per week, 5 months): significant reduction of total cholesterol | albumin/creatinine ratios in morning spot urine (BTBR ob/ob mice [9]; BTBR ob/ob mice, 4,000 mg/kg s.c. three times per week, at 3 months, vs untreated, p<0.001): significant down-regulation | kidney weight (BTBR ob/ob mice [9]; BTBR ob/ob mice, 4,000 mg/kg s.c. three times per week, at sacrifice (5 months)): reduction of kidney weight | albumin/creatinine ratios in morning spot urine (BTBR ob/ob mice [9]; BTBR ob/ob mice, 4,000 mg/kg s.c. three times per week, until sacrifice (5 months)): decrease persisted until sacrifice | glomerular surface area (BTBR ob/ob mice [9]; PAS stained kidney sections, five months of treatment): without affecting the glomerular surface area | mesangial expansion (BTBR ob/ob mice [9]; PAS stained kidney sections, semiquantitative scale 0-4, five months of treatment): reduction of mesangial expansion | albumin excretion rates (BTBR ob/ob mice [9]; homozygous BTBR ob/ob mice, 4,000 mg/kg s.c. three times per week, up to 2 months after treatment initiation): no changes | Blood urea nitrogen (BUN) (BTBR ob/ob mice [9]; [13]): not significantly affected | serum creatinine (BTBR ob/ob mice [9]; [13]): not significantly affected
